Laboratory results published in US10570099B2, “Salts of an epidermal growth factor receptor kinase inhibitor” (Celgene CAR LLC, priority 2012, dated 2020).

Key:
[1] = Slurry in pH 6.2 aqueous medium (conversion to unknown solid form); format: physicochemical; settings: slurry as for the hydrobromide at pH 6.2, XRPD
Experimental: In attempts to characterize this form, as well as establish the rate of conversion to this form while slurrying the material, the following experiments were carried out. Initially, approximately 100 mg of the hydrobromide (1 equiv.) material was slurried in a pH 6.2 aqueous solution at ambient and XRPD analysis was carried out at time points 5 min., 1 hr, 2 hrs, 4 hrs and 8 hrs. Further analysis was then also carried out on the converted material.

[2] = test system: human non-small cell lung cancer cell; settings: cited from earlier work
[3] = test system: human non-small cell lung cancer cell; settings: cited from earlier work; remark: listed apart in the source
mutant EGFR kinase = settings: enzymatic and cellular assays; cited from earlier work

C=CC(=O)Nc1cccc(Nc2nc(Nc3ccc(N4CCN(C(C)=O)CC4)cc3OC)ncc2C(F)(F)F)c1 [Compound 1, N-(3-(2-(4-(4-acetylpiperazin-1-yl)-2-methoxyphenylamino)-5-(trifluoromethyl)pyrimidin-4-ylamino)phenyl)acrylamide]
solid form after slurry experiment [1]: remained as the free base Form I | inhibition of cell proliferation in vivo [2]: inhibit | inhibition of cell proliferation in vitro [3]: inhibit | inhibition of mutant EGFR kinase (mutant EGFR kinase): selective covalent, irreversible inhibition
